Source: ChEMBL document CHEMBL1130650, “Nitroglycosylated meso-arylporphyrins as photoinhibitors of gram positive bacteria” (1998)
In brackets after ≈: the same amount, converted by molar mass. Activity calls are given as the source filed them. No cut-off for these calls is given here. Where a SMILES comes first, the peptide text is derived from it. Bridges are numbered along the chain shown (N, C = ends). [ ]: non-standard residue; d: D form. The star is where a group is joined. NMePhe(4-NMe2) = CN[C@@H](Cc1ccc(N(C)C)cc1)C(=O)O; Pip(4-oxo) = O=C1CCN[C@H](C(=O)O)C1; Picolinoyl(3-OH) = O=C(c1ncccc1O)*; Phg = N[C@H](C(=O)O)c1ccccc1; dAbu = CC[C@@H](N)C(=O)O

What was measured:
[1] = system: Staphylococcus aureus; test: Compound was tested for photoinhibition of Staphylococcus aureus(CIP 53156); Sensitive; assay type: functional, organism-based
[2] = system: Escherichia coli; test: Compound was tested for photoinhibition of Escherichia coli (CIP 548T); Sensitive; assay type: functional, organism-based
[3] = system: Escherichia coli; test: Compound was tested for photoinhibition of Escherichia coli (CIP 548T); Partially resistant; assay type: functional, organism-based
[4] = system: Staphylococcus aureus; test: Compound was tested for photoinhibition of Staphylococcus aureus(CIP 53156); assay type: functional, organism-based
[5] = system: Escherichia coli; test: Compound was tested for photoinhibition of Escherichia coli (CIP 548T); Resistant; assay type: functional, organism-based
[6] = system: Staphylococcus aureus; test: Compound was tested for photoinhibition of Staphylococcus aureus(CIP 53156); Partially resistant; assay type: functional, organism-based
[7] = system: Staphylococcus aureus; test: Compound was tested for photoinhibition of Staphylococcus aureus(CIP 53156); […]; assay type: functional, organism-based
[8] = system: Staphylococcus aureus; test: Compound was tested for antibacterial activity against Staphylococcus aureus CIP 53156; assay type: functional

Question: Which Antibiotic resistance [1] does the source give for `Nc1ccc(S(N)(=O)=O)cc1` here?
Answer: Its Antibiotic resistance is “Sensitive”.

Question: What about the Antibiotic resistance [2] of the same molecule?
Answer: Its Antibiotic resistance is “Sensitive”.

Question: For `CC(=O)OCC1=C(C(=O)O)N2C(=O)[C@@H](NC(=O)Cc3cccs3)[C@H]2SC1`, which Antibiotic resistance [3] is on record?
Answer: Its Antibiotic resistance is “Partially resistant”.

Question: And the Antibiotic resistance [4]?
Answer: Its Antibiotic resistance is “Partially resistant”.

Question: For `CN[C@H](CC(C)C)C(=O)N[C@H]1C(=O)N[C@@H](CC(N)=O)C(=O)N[C@H]2C(=O)N[C@H]3C(=O)N[C@H](C(=O)N[C@H](C(=O)O)c4cc(O)cc(O)c4-c4cc3ccc4O)[C@H](O)c3ccc(c(Cl)c3)Oc3cc2cc(c3O[C@@H]2O[C@H](CO)[C@@H](O)[C@H](O)[C@H]2O[C@H]2C[C@](C)(N)[C@H](O)[C@H](C)O2)Oc2ccc(cc2Cl)[C@H]1O`, which Antibiotic resistance [1] is on record?
Answer: The Antibiotic resistance was “Sensitive”.

Question: `CN[C@@H]1[C@H](O[C@H]2[C@H](O[C@H]3[C@H](O)[C@@H](O)[C@H](N=C(N)N)[C@@H](O)[C@@H]3N=C(N)N)O[C@@H](C)[C@]2(O)C=O)O[C@@H](CO)[C@H](O)[C@H]1O` was tested. Which Antibiotic resistance [1] did it give?
Answer: The Antibiotic resistance was “Sensitive”.

Question: And the Antibiotic resistance [2]?
Answer: Its Antibiotic resistance is “Sensitive”.

Question: How did the Antibiotic resistance [1] turn out when `NC[C@H]1O[C@H](O[C@H]2[C@H](O)[C@@H](O[C@H]3O[C@H](CO)[C@@H](O)[C@H](N)[C@H]3O)[C@H](N)C[C@@H]2N)[C@H](O)[C@@H](O)[C@@H]1O` was run?
Answer: The Antibiotic resistance was “Sensitive”.

Question: Which results are given for `CO[C@H]1/C=C/O[C@@]2(C)Oc3c(C)c(O)c4c(O)c(c(/C=N/N5CCN(C)CC5)c(O)c4c3C2=O)NC(=O)/C(C)=C\C=C\[C@H](C)[C@H](O)[C@@H](C)[C@@H](O)[C@@H](C)[C@H](OC(C)=O)[C@@H]1C`?
Answer: Antibiotic resistance [1]: Sensitive; Antibiotic resistance [2]: Sensitive

Question: `CN(C)[C@@H]1C(O)=C(C(N)=O)C(=O)[C@@]2(O)C(O)=C3C(=O)c4c(O)cccc4[C@@](C)(O)[C@H]3C[C@@H]12` was tested. Which Antibiotic resistance [1] did it give?
Answer: The Antibiotic resistance was “Active”.

Question: And the Antibiotic resistance [2]?
Answer: Its Antibiotic resistance is “Active”.

Question: Which Antibiotic resistance [1] does the source give for `CC1(C)S[C@@H]2[C@H](NC(=O)Cc3ccccc3)C(=O)N2[C@H]1C(=O)O` here?
Answer: Its Antibiotic resistance is “Sensitive”.

Question: Which results are given for `CC[C@H]1OC(=O)[C@H](C)[C@@H](O[C@H]2C[C@@](C)(OC)[C@@H](O)[C@H](C)O2)[C@H](C)[C@@H](O[C@@H]2O[C@H](C)C[C@H](N(C)C)[C@H]2O)[C@](C)(O)C[C@@H](C)C(=O)[C@H](C)[C@@H](O)[C@]1(C)O`?
Answer: Antibiotic resistance [1]: Partially resistant; Antibiotic resistance [3]: Partially resistant

Question: For `CC[C@H]1NC(=O)[C@@H](NC(=O)c2ncccc2O)[C@@H](C)OC(=O)[C@H](c2ccccc2)NC(=O)[C@@H]2CC(=O)CCN2C(=O)[C@H](Cc2ccc(N(C)C)cc2)N(C)C(=O)[C@@H]2CCCN2C1=O` ({Picolinoyl(3-OH)}-T[dAbu]P[NMePhe(4-NMe2)][Pip(4-oxo)][Phg]; ester 1-C), which Antibiotic resistance [5] is on record?
Answer: The Antibiotic resistance was “Resistant”.

Question: `O=C(N[C@H](CO)[C@H](O)c1ccc([N+](=O)[O-])cc1)C(Cl)Cl` was tested. Which Antibiotic resistance [6] did it give?
Answer: The Antibiotic resistance was “Partially resistant”.

Question: And the Antibiotic resistance [2]?
Answer: Its Antibiotic resistance is “Partially resistant”.

Question: `CCn1cc(C(=O)O)c(=O)c2ccc(C)nc21` was tested. Which Antibiotic resistance [7] did it give?
Answer: The Antibiotic resistance was “Resistant”.

Question: How did the Antibiotic resistance [2] turn out when `CC1(C)S[C@@H]2[C@H](NC(=O)[C@H](N)c3ccc(O)cc3)C(=O)N2[C@H]1C(=O)O` was run?
Answer: Its Antibiotic resistance is “Sensitive”.

Question: With `O=[N+]([O-])c1ccc(-c2c3nc(c(-c4ccc(OC[C@H]5O[C@H](O)[C@H](O)[C@@H](O)[C@@H]5O)cc4)c4nc(c(-c5ccc(OC[C@H]6O[C@H](O)[C@H](O)[C@@H](O)[C@@H]6O)cc5)c5ccc([nH]5)c(-c5ccc(OC[C@H]6O[C@H](O)[C@H](O)[C@@H](O)[C@@H]6O)cc5)c5ccc2[nH]5)C=C4)C=C3)cc1` as the molecule, how does the CI50 [8] read?
Answer: Its CI50 is 10 µg/mL (≈ 8.37 µM).
